{"source": "patent US4521430A", "about": "“1,5-Benzothiazepin-4-one, their pharmaceutical compositoins, and methods of use” (Tanabe Seiyaku Co., Ltd., priority 1983, dated 1985)", "key": {"[1]": {"tested_on": "vertebral artery blood flow", "assay": "Cerebral vasodilating activity: vertebral artery blood flow in anesthetized dogs, injection into vertebral artery (Experiment 1)", "assay_type": "in vivo", "method": "(§1) For example, when the cerebral vasodilating activity is evaluated by examining vertebral artery blood flow in anesthetized dogs to which a test compound is intraarterially administered, said activity of (+)-cis-2-(4-methoxyphenyl)-3-(2-chloro-4-nitrobenzoyloxy)-5-[2-(dimethylamino)ethyl]-2,3-dihydro-1,5-benzothiazepin-4-(5H)-one fumarate is 4.5 times stronger than that of papaverine. On the other hand, the coronary vasodilating activity of (+)-cis-2-(4-methoxyphenyl)-3-(2-chloro-4-nitrobenzoyloxy)-5-[2-(dimethylamino)ethyl]-2,3-dihydro-1,5-benzothiazepin-4(5H)-one fumarate when examined by the Langendorff method using isolated hearts of guinea pigs is 10 times stronger than that of papaverine.\n(§2) (Cerebral vasodilating activity)\nMale dogs weighing 10 to 20 kg were anesthetized with sodium pentobarbital (30 mg/kg, intravenous injection). The blood flow in vertebral artery was measured continuously by means of an electromagnetic flowmeter under artificial respiration. A test compound dissolved in an aqueous 5% glucose solution was injected into vertebral artery. The cerebral vasodilating activity of the test compound was estimated in terms of \"the potency ratio of said compound to papaverin\" which was calculated from the dose-responsecurves thereof."}, "cerebral ischemia": {"tested_on": "cerebral ischemia", "assay": "Protective effect on cerebral ischemia: recovery of electrocorticogram activity after occlusion of common carotid and vertebral artery", "assay_type": "in vivo", "details": "rats, 0.1 mg/kg/minute intravenously, within one hour after reestablishment of cerebral blood flow"}, "vertebral blood flow": {"tested_on": "vertebral blood flow", "assay": "Cerebral vasodilating activity: total increase in vertebral blood flow in anesthetized dogs, intravenous (Experiment 2)", "assay_type": "in vivo", "details": "anesthetized male dogs, 0.2 mg/kg intravenously; increase at peak response x half duration time", "method": "as §2\nMale dogs weighing 11 to 16 kg (one group: 3 dogs) were anesthetized with sodium pentobarbital (30 mg/kg, intravenous injection). The vertebral blood flow was measured by means of an electromagnetic flowmeter under artificial respiration. A test compound dissolved in an aqueous 5% glucose solution was injected intravenously at a dose of 0.2 mg/kg. The cerebral vasodilating activity of the test compound was estimated in terms of \"total increase in vertebral blood flow\" which was calculated by multiplying \"increase (Δml/minute) in blood flow at peak response\" by \"half duration time (T 1/2:minute)\"."}, "calmodulin": {"molecular_target": "calmodulin (Homo sapiens, UniProt P0DP23)", "assay": "Anti-calmodulin activity: activation of phosphodiesterase activity by calmodulin (Experiment 5)", "assay_type": "biochemical", "details": "pH 7.5, 30° C.; Table 4; read-out: ID50 (concentration for 50% inhibition of the activation of phosphodiesterase activity by calmodulin)"}, "[2]": {"tested_on": "coronary blood flow of the isolated heart", "assay": "Coronary vasodilating activity: Langendorff's method, coronary blood flow of isolated heart (Experiment 3)", "design": "species or system guinea pig", "method": "as §1\nLangendorff's method was used for testing the effect on the coronary blood flow of the isolated heart of guinea pig (about 280 g). The isolated heart was perfused with Locke-Ringer solution containing 2% of defibrinated rabbit blood, which had been saturated with a mixed gas of 95% O2 and 5% CO2 (30° C.). Perfusion pressure was kept at 40 cm H2 O. A solution of a test compound in an aqueous 5% glucose solution was injected into the perfusing solution at a volume of 0.1 ml per heart. The outflow of the perfusate was measured by means of a drop counter.\nThe coronary vasodilating activity of the test compound was expressed as \"±\" if the increase in coronary blood flow is less than 0.5 ml/minute at a dose of 100 μg/heart; \"+\" if the increase is not less than 0.5 ml/minute at a dose of 100 μg/heart; \"++\" if the increase is not less than 0.5 ml/minute at a dose of 30 μg/heart; and \"+++\" if the increase is not less than 0.5 ml/minute at a dose of not more than 10 μg/heart."}, "Acute toxicity, oral": {"assay": "Acute toxicity, oral", "details": "mouse, in vivo, mice, orally", "from_the_text": "The compound (I) is further characteristic in that said compound is low in toxicity. For example, the acute toxicity (LD50) of (+)-cis-2-(4-methoxyphenyl)-3-(2-chloro-4-nitrobenzoyloxy)-5-[2-(dimethylamino)ethyl]-2,3-dihydro-1,5-benzothiazepin-4(5H)-one fumarate, when administered to mice orally, is more than 2 g/kg."}, "[3]": {"tested_on": "atrioventricular conduction", "assay": "Atrioventricular conduction in anesthetized guinea pigs, intravenous", "assay_type": "in vivo", "details": "3 mg/kg intravenously"}, "platelet aggregation": {"tested_on": "platelet aggregation", "assay": "Platelet aggregation-inhibiting activity, collagen, platelet-rich plasma (Experiment 4)", "assay_type": "cell-based, Sprague-Dawley rats", "design": "key: -: the test compound showed less than 10% inhibition of platelet aggregation; +: the test compound showed not less than 10% inhibition of platelet aggregation but said percentage inhibition was lower than that of acetylsalicylic acid (100 μg/ml); ++: the test compound showed the platelet aggregation-inhibiting activity at least as strong as that of acetylsalicylic acid (100 μg/ml)", "details": "final concentration 100 μg/ml, rat PRP, 37° C., Table 3", "from_the_text": "Blood was collected from the abdominal aorta of male Sprague-Dawley rats which were anesthetized with ether. Nine volumes of said blood were mixed with one volume of an aqueous 3.8% (w/v) trisodium citrate solution, and the mixture was centrifuged to give platelet-rich plasma (\"PRP\") as the supernatant solution. The bottom layer was further centrifuged to give platelet-poor plasma (\"PPP\") as the supernatant solution. Platelet counts were adjusted to 0.8-1×10^6 /mm^3 for PRP by dilution with PPP. After a mixture of 200 μl of the diluted PRP and 25 μl of a test compound solution (final concentration: 100 μg/ml) was stirred for 2 minutes at 37° C., 25 μl of a collagen solution (Biochim. Biophys. Acta, 186, page 254(1969)) were added thereto. The degree of platelet aggregation was estimated by Born's method (Nature, 194, page 927(1962)) and percentage inhibition of platelet aggregation was calculated therefrom."}}, "note": "pIC50: −log10 of the molar value."}
{"smiles": "COc1ccc([C@@H]2Sc3ccccc3N(CCN(C)C)C(=O)[C@@H]2OC(=O)c2ccc([N+](=O)[O-])cc2Cl)cc1.O=C(O)/C=C/C(=O)O", "note": "[(+)-cis-2-(4-methoxyphenyl)-3-(2-chloro-4-nitrobenzoyloxy)-5-[2-(dimethylamino)ethyl]-2,3-dihydro-1,5-benzothiazepin-4(5H)-one fumarate]", "values": [{"measurement": "Cerebral vasodilating activity (potency ratio to papaverin, class)", "setting": "[1]; anesthetized male dogs, injected into vertebral artery, Table 1", "value": "+++ (the potency ratio is not less than 3)"}, {"measurement": "cerebral vasodilating activity, times stronger than that of papaverine", "setting": "[1]; vertebral artery blood flow, anesthetized dogs, intraarterial", "value": 4.5, "unit": "times"}, {"measurement": "recovery of electrocorticogram (ECoG) activity", "setting": "cerebral ischemia", "value": "about 50%"}, {"measurement": "total increase in vertebral blood flow", "setting": "vertebral blood flow", "value": 91, "unit": "mL"}, {"measurement": "pIC50", "setting": "calmodulin", "value": 5.60}, {"measurement": "coronary vasodilating activity, times stronger than that of papaverine", "setting": "[2]; Langendorff method, isolated hearts of guinea pigs", "value": 10, "unit": "times"}, {"measurement": "Coronary vasodilating activity (class)", "setting": "[2]; isolated guinea pig heart, Langendorff, Table 2", "value": "+++ (the increase is not less than 0.5 ml/minute at a dose of not more than 10 μg/heart)"}, {"measurement": "LD50", "setting": "Acute toxicity, oral", "value": "> 2000", "unit": "mg/kg"}, {"measurement": "disturbance of atrioventricular conduction", "setting": "[3]", "value": "did not induce disturbance of atrioventricular conduction"}, {"measurement": "Platelet aggregation-inhibiting activity (class)", "setting": "platelet aggregation", "value": "++"}]}
